For this assay, the target named is T1, peroxisome proliferator-activated receptor-γ (PPARγ) (Homo sapiens, UniProt P37231).
T1 sequence (P37231 223-505 limits assumed): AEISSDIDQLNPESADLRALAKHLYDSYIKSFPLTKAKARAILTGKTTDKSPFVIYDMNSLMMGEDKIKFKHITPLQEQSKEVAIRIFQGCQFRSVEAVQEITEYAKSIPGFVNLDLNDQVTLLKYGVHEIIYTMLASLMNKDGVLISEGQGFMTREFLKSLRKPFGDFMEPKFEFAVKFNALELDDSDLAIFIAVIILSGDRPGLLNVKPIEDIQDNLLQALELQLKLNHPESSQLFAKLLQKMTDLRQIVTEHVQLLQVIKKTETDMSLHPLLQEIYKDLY
The assay is described as follows: SPR. It is filed as binding.

By Kd is commonly meant the constant that tells how readily two partners part at equilibrium. A high value points to lower affinity.

Regarding `CC(C)/N=c1\cc2n(-c3ccc(Cl)cc3)c3ccccc3nc-2cc1Nc1ccc(Cl)cc1` [CFZ, clofazimine], the Kd was found to be 0.079 µM.

Values taken from publication PMC7109729 (Haematologica, 2020).
